Data reported in paper PMC6152408, “Interaction of Flavonoids from Woodwardia unigemmata with Bovine Serum Albumin (BSA): Application of Spectroscopic Techniques and Molecular Modeling Methods” (Molecules : A Journal of Synthetic Chemistry and Natural …, 2017).

Target: T1, bovine serum albumin (BSA) (Bos taurus, UniProt P02769)
T1 construct: gene ALB; commercial fatty acid-free native BSA (Shanghai Shenhang Biotechnology), mature, 583 residues, untagged; PDB 4JK4 used only for docking
Test: intrinsic fluorescence quenching (ex […] nm)
Format: binding
Settings: 297 K, pH 7.4, 0.05 M Tris-HCl, 0.1 M NaCl, 5 µM BSA; double-log

T1 sequence (P02769 25-607): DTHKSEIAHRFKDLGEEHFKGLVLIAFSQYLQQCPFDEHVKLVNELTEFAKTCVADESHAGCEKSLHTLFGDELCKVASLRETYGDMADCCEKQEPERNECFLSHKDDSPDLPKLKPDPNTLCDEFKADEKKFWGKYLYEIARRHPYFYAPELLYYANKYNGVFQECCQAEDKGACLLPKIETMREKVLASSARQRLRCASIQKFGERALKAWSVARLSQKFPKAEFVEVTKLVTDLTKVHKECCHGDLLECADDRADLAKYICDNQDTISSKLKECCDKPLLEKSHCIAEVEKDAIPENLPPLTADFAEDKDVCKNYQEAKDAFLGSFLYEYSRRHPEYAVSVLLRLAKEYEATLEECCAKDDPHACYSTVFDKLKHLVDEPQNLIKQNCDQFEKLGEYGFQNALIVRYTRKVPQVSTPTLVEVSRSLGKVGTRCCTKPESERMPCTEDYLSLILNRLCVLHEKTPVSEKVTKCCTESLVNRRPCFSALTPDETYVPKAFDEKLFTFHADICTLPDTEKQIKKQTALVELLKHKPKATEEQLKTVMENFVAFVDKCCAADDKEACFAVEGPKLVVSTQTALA

Kb (×10^5 L.mol^-1) | Structure (SMILES)
0.41 × 10^5 L·mol^−1 | CC(=O)O[C@@H]1[C@@H](O)[C@@H](O)[C@H](Oc2cc(O)c3c(=O)c(O[C@@H]4O[C@@H](C)[C@H](OC(C)=O)[C@@H](OC(C)=O)[C@H]4O)c(-c4ccc(O)cc4)oc3c2)O[C@H]1C [compound 1, kaempferol3-O-α-L-(3,4-O-di-acetyl) rhamopyranoside-7-O-α-L-(4-O-acetyl) rhamnopyranoside]
0.57 × 10^5 L·mol^−1 | CC(=O)O[C@@H]1[C@@H](OC(C)=O)[C@@H](O)[C@H](Oc2c(-c3ccc(O)cc3)oc3cc(O[C@@H]4O[C@@H](C)[C@H](O)[C@@H](O)[C@H]4O)cc(O)c3c2=O)O[C@H]1C [compound 2, crassirhizomoside B]
1.06 × 10^5 L·mol^−1 | CC(=O)O[C@@H]1[C@@H](O)[C@H](C)O[C@@H](Oc2c(-c3ccc(O)cc3)oc3cc(O[C@@H]4O[C@@H](C)[C@H](O)[C@@H](O)[C@H]4O)cc(O)c3c2=O)[C@@H]1O [compound 4, kaempferol 3-O-α-L-(3-O-acetyl) rhamopyranoside-7-O-α-L-rhamnopyranoside]
0.96 × 10^5 L·mol^−1 | CC(=O)O[C@H]1[C@H](Oc2c(-c3ccc(O)cc3)oc3cc(O[C@@H]4O[C@@H](C)[C@H](O)[C@@H](O)[C@H]4O)cc(O)c3c2=O)O[C@@H](C)[C@H](O)[C@H]1O [compound 5, kaempferol 3-O-α-L-(2-O-acetyl) rhamopyranoside-7-O-α-L-rhamnopyranoside]
